# Measured values as given in PMC3116189, “Novel Natural Inhibitors of CYP1A2 Identified by in Silico and in Vitro Screening” (International Journal of Molecular Sciences, 2011).
# Structures can show the parent of a compound that is named as a salt.
# Target: T1, CYP1A2 (Homo sapiens, UniProt P05177)
# T1 sequence (P05177 1-516): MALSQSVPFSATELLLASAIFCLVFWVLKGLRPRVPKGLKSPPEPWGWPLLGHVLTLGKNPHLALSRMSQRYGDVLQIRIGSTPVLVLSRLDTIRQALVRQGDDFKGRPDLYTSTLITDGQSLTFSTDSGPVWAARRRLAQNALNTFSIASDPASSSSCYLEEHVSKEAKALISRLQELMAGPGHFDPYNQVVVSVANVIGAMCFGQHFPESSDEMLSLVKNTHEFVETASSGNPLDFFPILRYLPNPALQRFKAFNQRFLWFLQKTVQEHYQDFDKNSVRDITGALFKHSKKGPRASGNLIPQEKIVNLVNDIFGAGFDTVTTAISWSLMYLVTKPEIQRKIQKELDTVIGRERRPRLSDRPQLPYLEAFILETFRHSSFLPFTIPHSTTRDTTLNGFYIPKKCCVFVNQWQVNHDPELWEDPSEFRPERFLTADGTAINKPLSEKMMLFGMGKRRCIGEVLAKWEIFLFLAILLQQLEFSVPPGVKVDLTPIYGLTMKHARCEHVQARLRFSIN
# Assay: in vitro
# Assay type: biochemical
# Conditions: 1 μM active ingredient, Rh CYP1A2-mediated phenacetin O-deethylation, test dataset of 202 herb ingredients
# 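Further: recombinant CYP1A2 incubated for 1 h at 37 °C, with the reaction started by an NADPH-generating system.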
row,SMILES,% of Control Indication Activity (Mean) [%]
1,COc1c2c(cc3oc(C)cc(=O)c13)OC(C(C)(C)O[C@@H]1O[C@H](CO)[C@@H](O)[C@H](O)[C@H]1O)C2 (stereo partly drawn) [5-O-Methylvisammioside],> 90
2,Oc1cc(O)c2c(c1)O[C@H](c1ccc(O)c(O)c1)[C@@H](O)C2 [(+)-Catechin],> 90
3,C=C1C(=O)O[C@@H]2C[C@@]3(C)CCC[C@H](C)C3=C[C@H]12 [Alantolactone],> 90
4,O=C1CCC[C@@H]2[C@H]3CCC[N@+]4([O-])CCC[C@@H](CN12)[C@@H]34 [Ammothamnine],> 90
5,CC(=O)O[C@H]1C[C@]2(O)[C@@H]3CC[C@@H]4C[C@@H](O)CC[C@]4(C)[C@H]3CC[C@]2(C)[C@H]1c1ccc(=O)oc1 [Bufatalin],> 90
6,CCOC(=O)/C=C/c1ccc(O)c(O)c1 [Caffeic acid ethyl ester],> 90
7,COc1cc(O)cc(O)c1C(=O)/C=C/c1ccccc1 [Cardamonin],> 90
8,COc1cc2c(c(OC)c1OC)-c1c(cc(OC)c(OC)c1OC)C[C@H](C)[C@H](C)C2 [Deoxyschizandrin],> 90
9,COc1cc(/C=C/C(=O)O)ccc1O [Ferulic acid],> 90
10,COc1ccc([C@H]2OC[C@H]3[C@@H]2CO[C@H]3c2ccc(O[C@@H]3O[C@H](CO)[C@@H](O)[C@H](O)[C@H]3O)c(OC)c2)cc1OC [Forsythin],> 90

# Same assay, conditions: human, recombinant enzyme, pH 7.4
row,SMILES,"activity at 1 h, 1 μM [%]"
1,"O=Cc1ccc(O)c(O)c1 [3,4-Dihydroxybenzaldehyde]",> 90
2,O=C1c2cccc(O)c2C(=O)c2c(O)cc(CO)cc21 [Aloe-emodin],> 90
3,O=c1cc(-c2ccccc2)oc2cc(O)c(O)c(O)c12 [Baicalein],> 90
4,O=C(O)[C@H]1O[C@@H](Oc2cc3oc(-c4ccccc4)cc(=O)c3c(O)c2O)[C@H](O)[C@@H](O)[C@@H]1O [Baicalin],> 90
5,O=c1cc(-c2ccccc2)oc2cc(O)cc(O)c12 [Chrysin],4.6
6,Cc1cc(O)c2c(c1)C(=O)c1cccc(O)c1C2=O [Chrysophanol],77.7
7,O=C/C=C/c1ccccc1 [Cinnamaldehyde],> 90
8,O=C(O)/C=C/c1ccccc1 [Cinnamic acid],> 90
9,O=c1c(-c2ccc(O)cc2)coc2cc(O)ccc12 [Daidzein],> 90
10,C=C1CC[C@H]2C(=C)CC[C@H]3C(=C)C(=O)O[C@@H]3[C@@H]12 [Dehydrocostus lactone],> 90
11,Cc1cc(O)c2c(c1)C(=O)c1cc(O)cc(O)c1C2=O [Emodin],> 90
12,O=c1ccc2cc(O)c(O)cc2o1 [Esculetin],> 90
13,O=C(O)c1cc(O)c(O)c(O)c1 [Gallic acid],> 90

# Same assay, conditions: human, recombinant enzyme, pH 7.4; 1 μM active ingredient, Rh CYP1A2-mediated phenacetin O-deethylation, test dataset of 202 herb ingredients; read-out: % of Control Indication Activity (Mean)
row,SMILES,"activity at 1 h, 1 μM [%]"
1,C=CCc1ccc(O)c(OC)c1 [Eugenol],> 90
2,COc1ccc2cc1Oc1ccc(cc1)C[C@H]1c3cc(c(OC)cc3CCN1C)Oc1c(O)c(OC)cc3c1[C@H](C2)N(C)CC3 [Fangchinoline],> 90

# Same assay, conditions: human, recombinant human CYP1A2, pH 7.4, probe phenacetin (25 μM), O-deethylation to acetaminophen; 1 μM active ingredient, Rh CYP1A2-mediated phenacetin O-deethylation, test dataset of 202 herb ingredients; read-out: % of Control Indication Activity (Mean)
row,SMILES,"activity at 1 h, 1 μM [%]"
1,COc1ccc(C=O)c(O)c1 [4-Methoxysalicylaldehyde],> 90
2,O=Cc1ccc(CO)o1 [5-Hydroxymethylfurfural],> 90
3,Oc1cc(O)c2c(c1)O[C@H](c1ccc(O)c(O)c1)[C@H](O)C2 [(−)-Epicatechin],> 90
4,COc1cc(O)cc2c1C(=O)C[C@@H](c1ccccc1)O2 [Alpinetin],> 90
5,C=C1CC[C@@H]2[C@](C)(CO)[C@H](O)CC[C@@]2(C)[C@@H]1C/C=C1/C(=O)OC[C@H]1O [Andrographolide],> 90
6,COc1ccc(C[C@H]2COC(=O)[C@@H]2Cc2ccc(O[C@@H]3O[C@H](CO)[C@@H](O)[C@H](O)[C@H]3O)c(OC)c2)cc1OC [Arctiin],> 90
7,O=C1c2c(O)cccc2C([C@@H]2O[C@H](CO)[C@@H](O)[C@H](O)[C@H]2O)c2cc(CO)cc(O)c21 (stereo partly drawn) [Bar baloin],> 90
8,COc1ccc2cc3[n+](cc2c1OC)CCc1cc2c(cc1-3)OCO2 [Berberine Hydrochloride],> 90
9,COc1c(O)cc2c(c1O)[C@@H]1O[C@H](CO)[C@@H](O)[C@H](O)[C@H]1OC2=O [Bergenin],> 90
10,C[N+](C)(C)CC(=O)O [Betaine],> 90
11,CC(=O)OC1CC2CCC1(C)C2(C)C (stereo not drawn) [Bornylacetate],> 90
12,O=C(O)/C=C/c1ccc(O)c(O)c1 [Caffeic acid],> 90
13,Cc1ccc(C(C)C)cc1O [Carvacrol],> 90
14,OC[C@H]1O[C@@H](O[C@@H]2OC=C[C@H]3[C@H](O)[C@@H]4O[C@]4(CO)[C@@H]23)[C@H](O)[C@@H](O)[C@@H]1O [Catalpo l],> 90
15,O=C(/C=C/c1ccc(O)c(O)c1)O[C@@H]1C[C@](O)(C(=O)O)C[C@@H](O)[C@H]1O [Chlorogenic acid],> 90
16,C=C1C(=O)O[C@@H]2/C=C(\C)CC/C=C(\C)CC[C@@H]12 [Costunolide],> 90
17,COc1cc(/C=C/C(=O)CC(=O)/C=C/c2ccc(O)c(OC)c2)ccc1O [Curcumin],> 90
18,COc1c2ccc(-c3ccccc3)oc-2cc(=O)c1C [Dracorhodin],21.1
19,CC12CCC(CC1)C(C)(C)O2 [Eucalyptol],> 90
20,COc1ccc(-c2coc3cc(O)ccc3c2=O)cc1 [Formononetin],> 90
21,COc1cc2ccc(=O)oc2c(O)c1O [Fraxetin],> 90
22,CC1=C2C(=O)O[C@@H](c3ccoc3)[C@]2(C)CCC1 [Fraxinellone],> 90
23,CC(C)=CCC[C@](C)(O[C@@H]1O[C@H](CO)[C@@H](O)[C@H](O)[C@H]1O)[C@H]1CC[C@]2(C)[C@@H]1[C@H](O)C[C@@H]1[C@@]3(C)CC[C@H](O)C(C)(C)[C@@H]3[C@@H](O)C[C@]12C [Ginsenoside F1],> 90

# Same assay, conditions: human, recombinant human CYP1A2, pH 7.4, probe phenacetin (25 μM), O-deethylation to acetaminophen; 1 μM test compound, 25 μM phenacetin, average of duplicate determinations; read-out: % of Control Indication Activity
row,SMILES,"activity at 1 h, 1 μM [%]"
1,"COc1cc(C(O)C(CO)Oc2ccc(/C=C\CO)cc2OC)ccc1O (single isomer, unassigned; (-)) [zhang 779, (−)-Threo-guaiacylglycerol-8-O-4′-(coniferyl alcohol) ether]",> 90

# Same assay, conditions: recombinant enzyme
row,SMILES,% of Control Indication Activity (Mean)
1,C=C1CC[C@@H]2[C@](C)(CO)[C@H](O)CC[C@@]2(C)[C@@H]1/C=C/C1=CCOC1=O [Dehydroandrographolide],> 90

# Same assay, conditions: recombinant enzyme, pH 7.4
row,SMILES,activity [%]
1,CN1[C@@H]2CC[C@H]1C[C@@H](OC(=O)C(CO)c1ccccc1)C2 (stereo partly drawn) [Atropine Sulfate],> 90
2,CN[C@@H](C)[C@H](O)c1ccccc1 [Ephedrine],> 90

# Same assay, conditions: recombinant enzyme, pH 7.4; 1 μM active ingredient, Rh CYP1A2-mediated phenacetin O-deethylation, test dataset of 202 herb ingredients; read-out: % of Control Indication Activity (Mean)
SMILES,"activity at 1 h, 1 μM [%]",activity [%]
CCN1C[C@]2(COC)[C@H](O)C[C@H](OC)[C@@]34[C@@H]5C[C@@]6(O)[C@H](OC(=O)c7ccccc7)[C@@H]5[C@@](OC(C)=O)([C@@H]([C@H](OC)[C@H]23)[C@@H]14)[C@@H](O)[C@@H]6OC [Aconitine],> 90,
N#C[C@H](O[C@@H]1O[C@H](CO[C@@H]2O[C@H](CO)[C@@H](O)[C@H](O)[C@H]2O)[C@@H](O)[C@H](O)[C@H]1O)c1ccccc1 [Amygdalin],,> 90
COc1ccc(C=O)cc1 [Anisaldehyde],,> 90
COC(=O)C1=CCCN(C)C1 [Arecoline],,> 90
COc1cccc2c1cc([N+](=O)[O-])c1c(C(=O)O)cc3c(c12)OCO3 [Aristolochic Acid],> 90,
CC(C)(C)[C@]1(O)CC2OC(=O)CC23C(=O)OC2OC(=O)[C@H](O)C231 (stereo partly drawn) [Bilobalide],> 90,
C[C@@]12C(=O)OC(=O)[C@]1(C)[C@H]1CC[C@@H]2O1 [Cantharidin],> 90,
CC1=C2C[C@H]3[C@@H](CC=C4C[C@@H](O)CC[C@@]43C)[C@@H]2CC[C@]12O[C@@H]1C[C@H](C)CN[C@H]1[C@H]2C [Cyclopamine],> 90,
OCc1ccc(O[C@@H]2O[C@H](CO)[C@@H](O)[C@H](O)[C@H]2O)cc1 [Gastrodin],,> 90
COC(=O)C1=CO[C@@H](O[C@@H]2O[C@H](CO)[C@@H](O)[C@H](O)[C@H]2O)[C@@H]2C(CO)=CC[C@H]12 [Geniposide],,> 90
C[C@@H]1C(=O)O[C@H]2C[C@@]34[C@H]5C[C@@H](C(C)(C)C)[C@]36[C@@H](OC(=O)[C@@H]6O)O[C@@]4(C(=O)O5)[C@]21O [Ginkgolide A],,> 90
